From patent publication US20250288570A1, “TREATMENT OF NEUROLOGICAL DISORDERS” (Praxis Precision Medicines, Inc., priority 2022, published 2025)
“Also recorded” adds a separate entry of the source.

Key:
[1] = system: MES-induced tonic hindlimb extension in male CD-1 mice; assay: MES acute seizure model, tonic hindlimb extension, Example 9; format: in vivo, mouse; details: for ED50: Mus musculus, read-out: ED50 value, protection from MES-induced tonic hindlimb extension
Description: The maximal electroshock (MES) acute seizure model of generalized seizures is validated for evaluating the anticonvulsant potential of compounds. […] The objective of this study was to evaluate the effect of Compound 1 on maximal electroshock induced seizure in male CD-1 mice.
Male CD-1 mice (Vital River, Beijing, China) approximately 6 weeks old were obtained for the study. Body weights were between 20.5 grams and 38.5 grams at the time the experiments were carried out. […] Food and water were available ad libitum.
Treatment was conducted using Compound 1 and 35% 2-hydroxypropyl-β-cyclodextrin (35% HPBCD, used as a negative control). Compound 1 stock solution was prepared fresh each experiment day in 35% HPBCD and protected from light. The stock solution was diluted with vehicle for lower doses.
Mice were brought to the test room at least one hour before the start of the experiment. Mice were administered valproate (VPA; 400 mg/kg, intraperitoneally); or vehicle (35% HPBCD, 10 mL/kg, intraperitoneally); or Compound 1 (0.3 mg/kg, 1 mg/kg, 3 mg/kg or 10 mg/kg, orally) 30 minutes prior to the MES test.
The electroshock apparatus was set to deliver a 50 mA square-wave stimulus, with a 0.8 second duration, a pulse width of 10 milliseconds, and a frequency of 50 Hz. A pair of custom stainless-steel electrodes were soaked in 0.2% agar, and then the subject received bilateral transauricular stimulation through ear-clip electrodes. During the stimulation, mice were manually restrained then released immediately into an observation cage where they were monitored continuously for 60 seconds by an observer blinded to treatment group.
Mice were anesthetized with CO2 and terminal plasma and brain tissue samples were collected. […] The supernatant plasma was pipetted into Eppendorf tubes.
All statistical analyses were conducted using GraphPad Prism 9.3. Means were combined and standard error was calculated using the Satterthwaite Approximation to combine standard deviations. […] ED50 and EC50 values were calculated from these fit curves.

[2] = target: T1, human Nav1.6 (Homo sapiens, UniProt Q9UQD0); assay: Peak INa tonic block (TB), automated patch clamp in HEK cells; format: cell-based; details: ratio of peak INa (TB) to persistent INa IC50
T1 construct: HEK-293 cell lines stably expressing human Nav1.6 (NP_055006) were used; expressed in transfected cells
T1 sequence (Q9UQD0 whole entry): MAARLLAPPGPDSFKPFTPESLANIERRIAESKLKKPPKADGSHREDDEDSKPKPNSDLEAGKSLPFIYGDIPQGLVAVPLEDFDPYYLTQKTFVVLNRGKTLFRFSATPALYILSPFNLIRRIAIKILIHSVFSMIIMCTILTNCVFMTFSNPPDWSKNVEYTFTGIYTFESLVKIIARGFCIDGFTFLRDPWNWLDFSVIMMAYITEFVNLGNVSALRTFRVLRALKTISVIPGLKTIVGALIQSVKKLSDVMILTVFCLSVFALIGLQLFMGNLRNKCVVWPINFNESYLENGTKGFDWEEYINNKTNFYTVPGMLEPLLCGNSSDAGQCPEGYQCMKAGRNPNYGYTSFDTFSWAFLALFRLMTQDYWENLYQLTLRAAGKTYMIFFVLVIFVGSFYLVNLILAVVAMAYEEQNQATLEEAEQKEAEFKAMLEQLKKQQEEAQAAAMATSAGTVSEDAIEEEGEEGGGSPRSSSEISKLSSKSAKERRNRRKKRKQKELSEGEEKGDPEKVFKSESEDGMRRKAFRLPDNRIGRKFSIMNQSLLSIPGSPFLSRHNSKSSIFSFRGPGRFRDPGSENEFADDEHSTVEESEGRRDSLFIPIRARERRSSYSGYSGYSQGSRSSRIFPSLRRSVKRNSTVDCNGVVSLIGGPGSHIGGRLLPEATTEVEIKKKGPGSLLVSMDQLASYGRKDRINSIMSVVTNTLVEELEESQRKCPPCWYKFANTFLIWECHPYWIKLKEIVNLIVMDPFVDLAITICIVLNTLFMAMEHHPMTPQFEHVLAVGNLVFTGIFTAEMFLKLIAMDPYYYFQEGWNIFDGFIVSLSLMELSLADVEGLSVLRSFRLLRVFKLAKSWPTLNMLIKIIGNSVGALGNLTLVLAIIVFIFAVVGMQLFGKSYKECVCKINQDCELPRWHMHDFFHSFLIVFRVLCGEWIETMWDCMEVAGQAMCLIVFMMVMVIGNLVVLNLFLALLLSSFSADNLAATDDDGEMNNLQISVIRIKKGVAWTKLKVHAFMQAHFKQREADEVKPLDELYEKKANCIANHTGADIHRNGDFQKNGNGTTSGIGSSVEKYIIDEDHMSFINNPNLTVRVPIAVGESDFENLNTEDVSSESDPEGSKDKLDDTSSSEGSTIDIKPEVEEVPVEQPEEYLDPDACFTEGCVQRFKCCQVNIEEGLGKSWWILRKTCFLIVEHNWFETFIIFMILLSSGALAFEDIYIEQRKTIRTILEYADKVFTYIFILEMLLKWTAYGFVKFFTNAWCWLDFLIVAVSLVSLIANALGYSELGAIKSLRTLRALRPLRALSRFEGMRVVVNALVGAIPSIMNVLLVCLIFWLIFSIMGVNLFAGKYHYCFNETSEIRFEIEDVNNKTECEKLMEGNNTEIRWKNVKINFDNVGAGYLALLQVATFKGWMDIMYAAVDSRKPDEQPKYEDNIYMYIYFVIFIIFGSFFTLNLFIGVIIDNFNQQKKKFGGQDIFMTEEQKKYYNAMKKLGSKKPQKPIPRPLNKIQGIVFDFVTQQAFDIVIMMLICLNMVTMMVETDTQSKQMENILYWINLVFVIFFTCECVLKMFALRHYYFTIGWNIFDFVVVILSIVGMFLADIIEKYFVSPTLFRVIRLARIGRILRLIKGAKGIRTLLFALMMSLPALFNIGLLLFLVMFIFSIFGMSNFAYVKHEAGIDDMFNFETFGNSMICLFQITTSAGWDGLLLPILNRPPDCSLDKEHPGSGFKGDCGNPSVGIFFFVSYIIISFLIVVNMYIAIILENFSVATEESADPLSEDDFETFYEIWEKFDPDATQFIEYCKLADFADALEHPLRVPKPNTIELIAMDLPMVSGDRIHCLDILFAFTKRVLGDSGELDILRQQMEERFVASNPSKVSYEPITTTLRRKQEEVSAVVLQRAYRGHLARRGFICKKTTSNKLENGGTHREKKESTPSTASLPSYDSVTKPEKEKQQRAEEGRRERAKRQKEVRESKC

[3] = target: T1, human Nav1.6; assay: ATX-II activated late (persistent) INa block, automated patch clamp in HEK cells; format: cell-based; details: for Persistent INa Hill slope: hNav1.6 in HEK cells; for inhibition of and preference for persistent INa (in words): hNav1.6
[4] = target: T2, hNav1.6 (Homo sapiens, UniProt Q9UQD0); assay: Peak INa voltage-dependent block (VDB), automated patch clamp in HEK cells; format: cell-based
T2 construct: expressed in transfected cells; host or cells: HEK cells
T2 sequence (Q9UQD0 whole entry): as above

[5] = target: T1, human Nav1.6; assay: Peak INa use-dependent block (UDB-10 Hz), automated patch clamp in HEK cells; format: cell-based; details: for Peak INa UDB-10 Hz Hill slope: use-dependent block; for activity dependent block of peak INa (in words): hNav1.6
[6] = system: MES-induced seizures in male CD-1 mice; assay: Maximal electroshock (MES) induced seizure test, Example 3; format: in vivo, mouse; details: dose response
Description: The maximal electroshock (MES) test is a validated model for evaluating anti-seizure potential of compounds. […] The object of these studies was to evaluate the effect of Compound 1 (0.3, 1, 3 and 10 mg/kg p.o. (oral)) to attenuate MES-induced seizures in male CD-1 mice.
(§1) Food and water were available ad libitum.
Dosing solutions were prepared on each experiment day. […] VPA was prepared in saline (Vehicle 1). All solutions were protected from light. All compounds and vehicles were dosed at 10 ml/kg.
The MES test was carried out over two days with half of the mice from each treatment group being tested on each day. Mice were brought to the test room at least one hour before the start of the experiment. […] Mice were randomly assigned into one of the six treatment groups.
Animals were p.o. (oral) administered Compound 1 or 35% HPBCD (Vehicle 2) 30 minutes prior to the MES test or i.p. administered VPA or saline (Vehicle 1) 30 minutes prior to the MES test.
A Grass S88× (Grass Technologies of Astro-Med, Inc., West Warwick, RI) Stimulus Isolation Unit (A385, WPI Inc., USA) was set to deliver a 50 mA square-wave stimulus, with a 0.8 second duration, a pulse width of 10 msec, and a frequency of 50 Hz. […] Each mouse was observed continuously by individuals blinded to treatment conditions and results were recorded. […]
From these fitted curves, ED50 and EC50 values were calculated.

[7] = system: spontaneous locomotor activity in male CD-1 mice; assay: Spontaneous locomotor activity (sLMA) test, Example 4; details: mouse, in vivo
Description: The Spontaneous Locomotor Activity (sLMA) test is a validated model for evaluating the potential motor side effects of compounds. The objective of this study was to evaluate the effect of Compound 1 (3, 5.6, 10 and 20 […], p.o.) on spontaneous locomotor activity (sLMA) in male CD-1 mice at 30 minutes post-dose.
as §1
Dosing solutions were prepared on each experiment day. […] All solutions were protected from light. Samples from dosing solutions were stored at 4° C.
The sLMA test was carried out over two days. Half of the mice from each treatment group was tested on each day.
Animals were p.o. administered Compound 1 or 35% HPBCD (vehicle) 30 minutes prior to the sLMA test.
All mice were anesthetized with CO2. […] The supernatant plasma was pipetted into Eppendorf tubes.

[8] = system: psychomotor seizures induced by 6-Hz electrical stimulation in CD-1 mice; assay: 6-Hz psychomotor seizure model (32 and 44 mA); format: in vivo, mouse; details: 600 mg/kg intraperitoneally
Text: The 6-Hz test is a validated model of focal seizures for evaluating the anti-seizure potential of compounds. The 6-Hz seizure model can be performed at different stimulation intensities (32 or 44 mA), with the higher intensity (44 mA) used as a model of pharmacoresistant seizures. The positive control valproate is an approved anti-seizure medicine (ASM).
This study evaluated the efficacy of Compound 1 in attenuating psychomotor seizures induced by 6-Hz electrical stimulation at two different stimulation intensities (32 and 44 mA) in wild-type CD-1 mice. Psychomotor seizures are defined as the expression of at least one of the following behaviors: stun/immobility, forelimb clonus, straub tail or lateral head movement within 30 seconds of the stimulus. Protection is defined as a complete absence of the above behaviors within 30 seconds of the stimulus. Doses of Compound 1 used were 1 mg/kg, 3 mg/kg and 6 mg/kg administered orally. Valproate (600 mg/kg, administered intraperitoneally) was used as a positive control.
Male CD-1 mice (Charles River Laboratories; St. Constant, Quebec, CAN) were used for the study. Body weights at the time the experiment was carried out were 30-40 grams. The mice were group-housed in polycarbonate cages according to standard operating procedures. Animals were maintained on a 12-hour light/12 hour dark cycle, with all experimental activities occurring during the light phase. Food and water were available ad libitum. Mice acclimated to the test facility for at least 72 hours prior to testing.
Treatment was conducted using Compound 1 and 35% 2-hydroxypropyl-β-cyclodextrin (35% HPBCD, used as a negative control). Compound 1 stock solution was prepared fresh each experiment day in 35% HPBCD. […] Valproate was prepared fresh each experiment day in a vehicle of saline and dosed at 10 mL/kg.
Mice were administered vehicle (35% HPBCD), a single dose of Compound 1 (1 mg/kg, 3 mg/kg or 6 mg/kg) or valproate (600 mg/kg). Vehicle and Compound 1 were administered via oral gavage 30 minutes prior to […]. Valproate was administered as an intraperitoneal injection 60 minutes prior to the electrical stimulus.
Immediately prior to conducting the 6-Hz seizure test, a brief neurological assessment was performed. Each animal was visually assessed and received a score from 0 to 3 according to the following scoring system: neurological score of 0 corresponds to a normal status; neurological score of 1 corresponds to a modest decrease in spontaneous activity; neurological score of 2 corresponds to a marked decrease in spontaneous activity; and neurological score of 3 corresponds to loss of righting reflex.
Corneal electrodes moistened with saline (ECT unit 57800; Ugo Basile) were used to deliver the electrical stimulus (6-Hz, 0.2 millisecond pulse width, 3 seconds duration). The current delivered was either 32 mA or 44 mA. Immediately after the electrical stimulus, each mouse was monitored continuously for 30 seconds by an observer blinded to the treatment group. […] Mice were scored for the presence or absence of each seizure behavior, with a maximum total score of 4. […] At the end of the 6-Hz seizure test, plasma and brain samples were collected.
Mice were anesthetized with isoflurane, whole blood was collected via cardiac puncture and brains were harvested. […] Plasma and brain samples were stored at −80° C. and analyzed to determine levels of Compound 1. […]

[9] = 400 mg/kg intraperitoneally, listed as valproate

Row | SMILES | ED50 ([1]; male CD-1 mice) [mg/kg] | Peak INa TB Ratio to Pers. INa [2] | Persistent INa Hill slope [3] | Peak INa VDB Hill slope [4] | Peak INa VDB Ratio to Pers. INa [4] | Peak INa UDB-10 Hz Ratio to Pers. INa [5] | Peak INa UDB-10 Hz Hill slope [5] | other results
1 | Cc1cc(N2CCc3cc(F)ccc3C2)cc(C)c1NC(=O)CC(C)(C)C [XEN1101] | 3.8 to 5.4 | – | – | – | – | – | – | –
2 | NC(=O)N1c2ccccc2CC(=O)c2ccccc21 [Oxcarbazepine, oxcarbazepine] | – | 8 | (1.0) | (1.1) | 0.3 | – | – | –
3 | COC[C@@H](NC(C)=O)C(=O)NCc1ccccc1 [Lacosamide, lacosamide] | – | – | (0.9) | (1.2) | 0.3 | 0.8 | (1.3) | –
4 | O=C1NC(=O)C(c2ccccc2)(c2ccccc2)N1 [Phenytoin, phenytoin] | – | – | (0.8) | (1.0) | 0.8 | 15 | (0.6) | –
5 | Nc1nnc(-c2cccc(Cl)c2Cl)c(N)n1 [Lamotrigine, lamotrigine] | 3.8 to 5.4 | – | (1.0) | (0.9) | – | – | (1.0) | protection against MES-induced seizures (in words) [6]: dose-dependent protection from MES-induced seizures; sLMA dose response (in words) [7]: dose-dependent reductions in sLMA; inhibition of and preference for persistent INa (in words) [3]: lower potency and preference for persistent INa; activity dependent block of peak INa (in words) [5]: minimal activity dependent block of peak INa
6 | CCCC(CCC)C(=O)O [Valproic acid] | – | – | – | – | – | – | – | sedation before MES test (in words) ([1]; 400 mg/kg intraperitoneally, listed as Valproate): mild to moderate sedation; protection against MES-induced hindlimb extension (in words) [1, 9]: all mice n=24 were seizure-free; also recorded: protected mice from MES-induced tonic hindlimb extension; sedation before MES test (in words) [1, 9]: nearly all valproate-treated mice showed mild to moderate sedation; average neurological score [8]: 1.2; neurological scores / spontaneous activity ([8]; listed as valproate): modest to marked decrease in spontaneous activity
7 | NC(=O)N1c2ccccc2C=Cc2ccccc21 [Carbamazepine, carbamazepine] | 3.8 to 5.4 | 30 | (1.1) | (0.9) | 0.6 | 18 | (0.9) | protection against MES-induced seizures (in words) [6]: dose-dependent protection from MES-induced seizures; sLMA dose response (in words) [7]: dose-dependent reductions in sLMA; persistent INa preference to TB [3]: 30 ×; inhibition of and preference for persistent INa (in words) [3]: lower potency and preference for persistent INa; UDB preference to TB [5]: no UDB observed; activity dependent block of peak INa (in words) [5]: minimal activity dependent block of peak INa
8 | NC(=O)O[C@@H](Cn1ncnn1)c1ccccc1Cl [Cenobamate, cenobamate] | 3.8 to 5.4 | 24 | (1.1) | (0.9) | 0.9 | 11 | (0.7) | ED50 value, protection from MES-induced tonic hindlimb extension ([1]; male CD-1 mice): 4.1 mg/kg; persistent INa preference to TB [3]: 24 ×; UDB preference to TB [5]: 2.3 ×
